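Following 48 hours of exposure in 96-well plates, responses at five concentrations were used to interpolate endpoints linearly. GI50 marks 50% less growth.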 Activity calls are given as the source filed them. Cut-off read from the data, not from the text of the source: active = GI50 up to about 1.1 µM and inactive = higher.
Tests used:
Experiment in all cases: NCI anticancer screen, dose series, 48 h
BT-549 = tested on: BT-549
SNB-19 = tested on: SNB-19
HT-29 = tested on: HT-29
UACC-62 = tested on: UACC-62
NCI-H226 = tested on: NCI-H226
A498 = tested on: A498
CAKI-1 = tested on: CAKI-1
DU-145 = tested on: DU-145
RXF 393 = tested on: RXF 393
OVCAR-5 = tested on: OVCAR-5
TK-10 = tested on: TK-10
HL-60 = tested on: HL-60
SK-OV-3 = tested on: SK-OV-3
MOLT-4 = tested on: MOLT-4
KM12 = tested on: KM12
MDA-N = tested on: MDA-N
786-0 = tested on: 786-0
SF-268 = tested on: SF-268
SK-MEL-5 = tested on: SK-MEL-5
UACC-257 = tested on: UACC-257

SMILES	GI50 (BT-549)	GI50 (SNB-19)	GI50 (HT-29)	GI50 (UACC-62)	GI50 (NCI-H226)	GI50 (A498)	GI50 (CAKI-1)	GI50 (DU-145)	GI50 (RXF 393)	GI50 (OVCAR-5)	GI50 (TK-10)	GI50 (HL-60)	GI50 (SK-OV-3)	GI50 (MOLT-4)	GI50 (KM12)	GI50 (MDA-N)	GI50 (786-0)	GI50 (SF-268)	GI50 (SK-MEL-5)	GI50 (UACC-257)
C/C=C1/CN2CCC34c5ccccc5N5C(=O)C(C6CC78c9ccccc9N9C(=O)C=CC(C%10CC7N6C/C%10=C/C)C98)=CC(C1CC23)C54 (stereo not drawn)	8.77 µM (inactive)	7.87 µM (inactive)	2.44 µM (inactive)	7.69 µM (inactive)	7.13 µM (inactive)	8.81 µM (inactive)	8.71 µM (inactive)	7.71 µM (inactive)	1.73 µM (inactive)	10.2 µM (inactive)	7.52 µM (inactive)	0.183 µM (active)	9.79 µM (inactive)	1.11 µM (active)	9.55 µM (inactive)	5.47 µM (inactive)	4.67 µM (inactive)	6.89 µM (inactive)	5.83 µM (inactive)	5.62 µM (inactive)
CC(=O)Oc1ccc(N2C(=O)C3c4[nH]c5ccccc5c4C4CCC(C(C)(C)C)CC4C3C2=O)cc1 (stereo not drawn)	4.02 µM (inactive)	3.08 µM (inactive)	3.3 µM (inactive)	6.08 µM (inactive)	12.7 µM (inactive)	4.11 µM (inactive)	5.31 µM (inactive)	3.7 µM (inactive)	2.46 µM (inactive)	2.63 µM (inactive)	3.33 µM (inactive)	2.21 µM (inactive)	10.8 µM (inactive)	10 µM (inactive)		4.67 µM (inactive)	2.1 µM (inactive)	3.34 µM (inactive)	2.84 µM (inactive)	11.1 µM (inactive)
Nc1cc2c(c3ccccc13)C(CCl)CN2C(=O)c1cc2cc(NC(=O)Nc3ccc4[nH]c(C(=O)N5CC(CCl)c6c5cc(N)c5ccccc65)cc4c3)ccc2[nH]1 (stereo not drawn)	0.776 µM (active)	0.0785 µM (active)	< 0.0176 µM (active)	0.0634 µM (active)	0.275 µM (active)	0.197 µM (active)	< 0.01 µM (active)	< 0.01 µM (active)	0.0719 µM (active)	0.612 µM (active)	1.42 µM (inactive)		0.506 µM (active)	< 0.01 µM (active)	1.08 µM (active)	0.292 µM (active)	0.0153 µM (active)	0.0514 µM (active)	0.141 µM (active)	1.16 µM (inactive)
O=C(OCC1CCCN2CCCCC12)c1cccnc1 (stereo not drawn)	> 100 µM (inactive)	> 100 µM (inactive)	> 100 µM (inactive)	> 100 µM (inactive)	> 100 µM (inactive)	> 100 µM (inactive)	> 100 µM (inactive)	> 100 µM (inactive)	> 100 µM (inactive)		> 100 µM (inactive)	> 100 µM (inactive)	> 100 µM (inactive)	> 100 µM (inactive)	> 100 µM (inactive)	> 100 µM (inactive)	> 100 µM (inactive)	> 100 µM (inactive)	> 100 µM (inactive)	> 100 µM (inactive)
NC(=O)/C=C/NC(=O)/C=N\O	> 100 µM (inactive)	> 100 µM (inactive)	> 100 µM (inactive)	> 100 µM (inactive)	> 100 µM (inactive)	> 100 µM (inactive)	> 100 µM (inactive)	> 100 µM (inactive)	> 100 µM (inactive)	> 100 µM (inactive)		> 100 µM (inactive)	> 100 µM (inactive)	> 100 µM (inactive)	> 100 µM (inactive)	> 100 µM (inactive)	> 100 µM (inactive)	> 100 µM (inactive)	> 100 µM (inactive)	> 100 µM (inactive)
COC(=O)C[C@H]1[C@]2(C)C3=C(C)[C@H](c4ccoc4)CC3O[C@@H]2[C@@H]2OC(=O)[C@]3(C)CCC(=O)[C@@]1(C)[C@@H]23 (stereo partly drawn)	51.5 µM (inactive)		33.8 µM (inactive)	49.2 µM (inactive)		> 100 µM (inactive)	52.5 µM (inactive)	32.4 µM (inactive)	53.5 µM (inactive)	27.5 µM (inactive)		22.8 µM (inactive)	> 100 µM (inactive)	20 µM (inactive)	> 100 µM (inactive)	49.9 µM (inactive)	32.3 µM (inactive)	48 µM (inactive)	56.6 µM (inactive)	61 µM (inactive)
C/C(Cl)=N\OC(=O)Nc1ccc([N+](=O)[O-])cc1	23 µM (inactive)	17.5 µM (inactive)	9.71 µM (inactive)	22.2 µM (inactive)	> 100 µM (inactive)	15.3 µM (inactive)	5.21 µM (inactive)	17.6 µM (inactive)	16.8 µM (inactive)	16.4 µM (inactive)	14.7 µM (inactive)	1.82 µM (inactive)	13.3 µM (inactive)	1.92 µM (inactive)	15.5 µM (inactive)	10.8 µM (inactive)	5.92 µM (inactive)	21 µM (inactive)	17.4 µM (inactive)	16.8 µM (inactive)

From ChEMBL document CHEMBL1201862, “PubChem BioAssay data set” (2004)
